# Data from paper PMC10382584, “Macrocyclization of linear molecules by deep learning to facilitate macrocyclic drug candidates discovery” (Nature Communications, 2023).
# How the values were obtained:
# Assay in all cases: biochemical
# Parameters in all cases: DiscoveRx KINOMEscan competition binding, percent of DMSO control signal at 100 nM
# Conditions in all cases: read-out: Fig. 4a / Percent Control / Compound 1; percent of DMSO control, competition binding
# MLK2 = molecular target: T1, MLK2 (Homo sapiens, UniProt Q02779)
# T1 construct: gene MAP3K10
# PIK4CB = molecular target: T2, PIK4CB (Homo sapiens, UniProt Q9UBF8)
# T2 construct: gene PI4KB
# TIE1 = TIE1 (Homo sapiens, UniProt P35590)
# FLT3(ITD) = FLT3(ITD) (Homo sapiens, UniProt P36888, ITD)
# MAP3K3 = MAP3K3 (Homo sapiens, UniProt Q99759)
# FER = FER (Homo sapiens, UniProt P16591)
# FGR = FGR (Homo sapiens, UniProt P09769)
# YANK1 = molecular target: T3, YANK1 (Homo sapiens, UniProt Q8WU08)
# T3 construct: gene STK32A
# BIKE = molecular target: T4, BIKE (Homo sapiens, UniProt Q9NSY1)
# T4 construct: gene BMP2K
# AXL = AXL (Homo sapiens, UniProt P30530)
# LKB1 = molecular target: T5, LKB1 (Homo sapiens, UniProt Q15831)
# T5 construct: gene STK11
# SRPK3 = SRPK3 (Homo sapiens, UniProt Q9UPE1)
# PIK3CA(E542K) = PIK3CA(E542K) (Homo sapiens, UniProt P42336, E542K)
# ITK = ITK (Homo sapiens, UniProt Q08881)
# FLT1 = FLT1 (Homo sapiens, UniProt P17948)
# BRSK2 = BRSK2 (Homo sapiens, UniProt Q8IWQ3)
# LRRK2 = LRRK2 (Homo sapiens, UniProt Q5S007)
# TAOK1 = TAOK1 (Homo sapiens, UniProt Q7L7X3)
# ACVR2A = ACVR2A (Homo sapiens, UniProt P27037)
# TNK1 = TNK1 (Homo sapiens, UniProt Q13470)
# RIPK1 = RIPK1 (Homo sapiens, UniProt Q13546)
# CSK = CSK (Homo sapiens, UniProt P41240)
# BRK = molecular target: T6, BRK (Homo sapiens, UniProt Q13882)
# T6 construct: gene PTK6
# EPHB2 = EPHB2 (Homo sapiens, UniProt P29323)
# KIT(D816V) = KIT(D816V) (Homo sapiens, UniProt P10721, D816V)
# 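Note: KINOMEscan kinase panel binding assay, signal normalized between DMSO as 100% and a positive control compound as 0%.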
# CSK, sequence (P41240 whole entry): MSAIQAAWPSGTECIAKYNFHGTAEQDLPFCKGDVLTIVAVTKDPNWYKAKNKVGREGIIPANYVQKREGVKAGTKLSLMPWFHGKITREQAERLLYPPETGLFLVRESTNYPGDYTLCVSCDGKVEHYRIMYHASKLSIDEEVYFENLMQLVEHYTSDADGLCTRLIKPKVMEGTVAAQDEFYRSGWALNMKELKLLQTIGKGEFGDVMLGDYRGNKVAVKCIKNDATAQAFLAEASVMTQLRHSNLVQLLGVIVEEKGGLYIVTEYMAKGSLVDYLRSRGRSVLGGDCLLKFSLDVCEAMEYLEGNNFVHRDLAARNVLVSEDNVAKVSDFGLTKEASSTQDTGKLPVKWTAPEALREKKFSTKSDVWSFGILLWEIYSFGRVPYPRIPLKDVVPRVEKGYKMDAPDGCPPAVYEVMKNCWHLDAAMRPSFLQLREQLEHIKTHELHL
# T4 sequence (Q9NSY1 whole entry): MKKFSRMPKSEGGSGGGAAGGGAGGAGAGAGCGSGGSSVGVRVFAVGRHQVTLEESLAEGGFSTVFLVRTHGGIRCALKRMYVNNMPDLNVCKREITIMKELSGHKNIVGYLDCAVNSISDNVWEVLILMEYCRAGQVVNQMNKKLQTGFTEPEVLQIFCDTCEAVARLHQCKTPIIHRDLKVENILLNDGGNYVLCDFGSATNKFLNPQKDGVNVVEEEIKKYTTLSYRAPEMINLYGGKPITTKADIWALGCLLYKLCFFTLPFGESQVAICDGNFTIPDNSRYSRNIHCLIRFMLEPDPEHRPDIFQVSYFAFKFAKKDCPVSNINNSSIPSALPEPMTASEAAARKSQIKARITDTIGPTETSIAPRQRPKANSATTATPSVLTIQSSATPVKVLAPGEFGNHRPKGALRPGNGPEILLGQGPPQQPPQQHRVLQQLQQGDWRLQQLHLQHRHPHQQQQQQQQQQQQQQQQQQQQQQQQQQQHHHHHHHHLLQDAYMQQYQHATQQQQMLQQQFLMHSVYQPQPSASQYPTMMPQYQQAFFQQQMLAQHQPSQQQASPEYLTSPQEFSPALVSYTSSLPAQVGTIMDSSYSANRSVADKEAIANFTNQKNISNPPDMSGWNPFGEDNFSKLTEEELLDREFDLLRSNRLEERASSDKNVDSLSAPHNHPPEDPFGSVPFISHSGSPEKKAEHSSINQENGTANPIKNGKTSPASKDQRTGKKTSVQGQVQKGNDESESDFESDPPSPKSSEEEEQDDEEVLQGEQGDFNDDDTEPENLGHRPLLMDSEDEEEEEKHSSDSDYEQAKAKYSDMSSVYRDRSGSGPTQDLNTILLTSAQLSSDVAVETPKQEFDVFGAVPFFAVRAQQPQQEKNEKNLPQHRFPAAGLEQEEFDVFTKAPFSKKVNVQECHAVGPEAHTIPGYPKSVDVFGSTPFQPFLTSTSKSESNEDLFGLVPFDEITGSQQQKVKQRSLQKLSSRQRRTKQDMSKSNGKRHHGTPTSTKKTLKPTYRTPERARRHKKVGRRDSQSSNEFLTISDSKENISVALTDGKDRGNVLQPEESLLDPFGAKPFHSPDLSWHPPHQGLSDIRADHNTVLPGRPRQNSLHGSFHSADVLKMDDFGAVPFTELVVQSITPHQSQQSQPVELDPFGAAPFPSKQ
# FER, sequence (P16591 whole entry): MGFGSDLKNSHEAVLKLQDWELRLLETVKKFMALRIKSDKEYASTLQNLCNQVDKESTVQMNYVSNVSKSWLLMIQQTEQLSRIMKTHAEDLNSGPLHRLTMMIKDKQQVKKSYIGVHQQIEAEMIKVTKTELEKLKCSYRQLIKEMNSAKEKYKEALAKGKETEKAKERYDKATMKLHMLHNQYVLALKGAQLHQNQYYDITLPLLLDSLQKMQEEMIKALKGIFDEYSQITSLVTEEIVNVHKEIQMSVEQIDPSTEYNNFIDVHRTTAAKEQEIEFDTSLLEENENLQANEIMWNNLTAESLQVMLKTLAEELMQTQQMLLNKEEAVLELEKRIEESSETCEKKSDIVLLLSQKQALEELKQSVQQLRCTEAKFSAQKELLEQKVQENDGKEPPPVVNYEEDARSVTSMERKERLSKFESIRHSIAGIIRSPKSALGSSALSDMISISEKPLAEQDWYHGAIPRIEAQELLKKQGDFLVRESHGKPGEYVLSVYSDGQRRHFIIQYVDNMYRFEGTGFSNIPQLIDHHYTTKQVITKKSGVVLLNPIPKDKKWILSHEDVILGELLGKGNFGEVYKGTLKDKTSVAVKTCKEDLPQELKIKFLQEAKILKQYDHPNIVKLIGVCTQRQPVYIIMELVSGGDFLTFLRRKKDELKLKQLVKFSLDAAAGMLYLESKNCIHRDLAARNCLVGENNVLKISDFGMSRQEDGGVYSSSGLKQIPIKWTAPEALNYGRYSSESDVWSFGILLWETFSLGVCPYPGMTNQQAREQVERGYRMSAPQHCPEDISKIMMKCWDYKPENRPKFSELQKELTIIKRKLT
# T2 sequence (Q9UBF8 whole entry): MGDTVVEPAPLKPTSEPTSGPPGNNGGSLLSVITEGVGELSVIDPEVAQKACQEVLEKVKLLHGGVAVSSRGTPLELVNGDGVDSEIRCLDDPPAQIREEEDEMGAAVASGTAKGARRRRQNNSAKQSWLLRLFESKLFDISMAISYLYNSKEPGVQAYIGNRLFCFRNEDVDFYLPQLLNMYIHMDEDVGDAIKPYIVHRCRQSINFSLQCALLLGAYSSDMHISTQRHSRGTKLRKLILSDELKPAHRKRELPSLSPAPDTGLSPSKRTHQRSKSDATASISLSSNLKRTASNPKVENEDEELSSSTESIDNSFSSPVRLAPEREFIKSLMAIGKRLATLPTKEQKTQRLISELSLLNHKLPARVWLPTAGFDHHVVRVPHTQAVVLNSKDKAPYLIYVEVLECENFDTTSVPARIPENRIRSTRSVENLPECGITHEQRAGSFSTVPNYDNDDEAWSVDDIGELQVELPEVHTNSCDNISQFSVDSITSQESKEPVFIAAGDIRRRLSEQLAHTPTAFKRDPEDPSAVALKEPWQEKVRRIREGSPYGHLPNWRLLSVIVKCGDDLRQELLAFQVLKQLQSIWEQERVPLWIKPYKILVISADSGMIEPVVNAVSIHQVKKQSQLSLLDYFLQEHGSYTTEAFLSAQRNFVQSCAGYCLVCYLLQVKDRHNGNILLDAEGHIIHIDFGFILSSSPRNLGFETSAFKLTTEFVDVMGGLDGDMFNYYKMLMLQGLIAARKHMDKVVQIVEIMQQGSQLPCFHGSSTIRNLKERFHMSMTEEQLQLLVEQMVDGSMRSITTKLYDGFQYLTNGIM
# AXL, sequence (P30530 whole entry): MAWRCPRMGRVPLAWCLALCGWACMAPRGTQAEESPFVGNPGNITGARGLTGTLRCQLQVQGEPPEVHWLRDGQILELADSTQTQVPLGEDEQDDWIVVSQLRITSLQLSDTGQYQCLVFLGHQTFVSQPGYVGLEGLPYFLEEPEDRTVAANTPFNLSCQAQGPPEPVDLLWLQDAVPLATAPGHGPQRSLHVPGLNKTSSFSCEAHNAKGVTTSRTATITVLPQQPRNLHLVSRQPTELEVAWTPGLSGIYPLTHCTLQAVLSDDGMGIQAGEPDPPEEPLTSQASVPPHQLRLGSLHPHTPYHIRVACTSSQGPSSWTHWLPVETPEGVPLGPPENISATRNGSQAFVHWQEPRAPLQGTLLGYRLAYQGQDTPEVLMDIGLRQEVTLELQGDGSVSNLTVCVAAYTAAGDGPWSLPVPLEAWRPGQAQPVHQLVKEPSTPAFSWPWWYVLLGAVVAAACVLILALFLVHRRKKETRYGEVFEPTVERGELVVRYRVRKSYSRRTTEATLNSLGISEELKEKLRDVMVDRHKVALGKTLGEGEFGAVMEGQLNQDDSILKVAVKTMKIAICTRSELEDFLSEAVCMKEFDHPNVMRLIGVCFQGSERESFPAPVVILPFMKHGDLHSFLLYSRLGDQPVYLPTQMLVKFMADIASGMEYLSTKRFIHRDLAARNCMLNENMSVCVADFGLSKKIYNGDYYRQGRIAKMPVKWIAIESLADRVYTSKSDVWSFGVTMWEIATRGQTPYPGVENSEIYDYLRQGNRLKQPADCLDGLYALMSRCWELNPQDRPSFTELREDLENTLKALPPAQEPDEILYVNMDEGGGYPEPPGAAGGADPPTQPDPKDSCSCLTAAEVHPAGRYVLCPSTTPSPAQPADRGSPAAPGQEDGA
# FLT3(ITD), sequence (P36888 564-993, change not shown): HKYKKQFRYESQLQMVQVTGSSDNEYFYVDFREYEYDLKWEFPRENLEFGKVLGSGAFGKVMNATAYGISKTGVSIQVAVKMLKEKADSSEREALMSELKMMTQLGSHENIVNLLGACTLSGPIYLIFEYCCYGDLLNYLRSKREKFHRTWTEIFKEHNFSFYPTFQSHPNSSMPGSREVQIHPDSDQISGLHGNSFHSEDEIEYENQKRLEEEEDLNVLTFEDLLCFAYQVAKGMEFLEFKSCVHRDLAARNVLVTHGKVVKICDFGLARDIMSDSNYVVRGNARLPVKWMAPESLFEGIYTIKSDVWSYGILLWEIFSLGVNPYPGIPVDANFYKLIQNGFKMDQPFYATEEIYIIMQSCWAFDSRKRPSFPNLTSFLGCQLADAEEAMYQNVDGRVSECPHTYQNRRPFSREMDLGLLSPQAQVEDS
# T3 sequence (Q8WU08 whole entry): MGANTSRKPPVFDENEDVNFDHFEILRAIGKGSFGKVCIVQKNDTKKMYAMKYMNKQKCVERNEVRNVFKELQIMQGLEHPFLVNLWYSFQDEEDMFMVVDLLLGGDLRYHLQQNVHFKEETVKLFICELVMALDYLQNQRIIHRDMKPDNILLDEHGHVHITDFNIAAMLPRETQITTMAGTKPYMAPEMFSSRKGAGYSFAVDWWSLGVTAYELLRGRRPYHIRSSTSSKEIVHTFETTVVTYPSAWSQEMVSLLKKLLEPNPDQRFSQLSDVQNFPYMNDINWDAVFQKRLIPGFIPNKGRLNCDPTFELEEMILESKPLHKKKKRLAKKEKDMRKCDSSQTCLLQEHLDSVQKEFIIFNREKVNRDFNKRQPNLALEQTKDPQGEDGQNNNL
compound,measurement,setting,value
Cc1cnc2nc1Nc1cccc(c1)COCc1cc(ccc1OCCN1CCCC1)N2 [Compound 1],remaining binding at 0.1 µM,MLK2,98%
same,remaining binding at 0.1 µM,PIK4CB,79%
same,remaining binding at 0.1 µM,TIE1,94%
same,remaining binding at 0.1 µM,FLT3(ITD),17%
same,remaining binding at 0.1 µM,MAP3K3,74%
same,remaining binding at 0.1 µM,FER,87%
same,remaining binding at 0.1 µM,FGR,100%
same,remaining binding at 0.1 µM,YANK1,73%
same,remaining binding at 0.1 µM,BIKE,47%
same,remaining binding at 0.1 µM,AXL,90%
same,remaining binding at 0.1 µM,LKB1,100%
same,remaining binding at 0.1 µM,SRPK3,82%
same,remaining binding at 0.1 µM,PIK3CA(E542K),89%
same,remaining binding at 0.1 µM,ITK,93%
same,remaining binding at 0.1 µM,FLT1,100%
same,remaining binding at 0.1 µM,BRSK2,94%
same,remaining binding at 0.1 µM,LRRK2,85%
same,remaining binding at 0.1 µM,TAOK1,72%
same,remaining binding at 0.1 µM,ACVR2A,99%
same,remaining binding at 0.1 µM,TNK1,38%
same,remaining binding at 0.1 µM,RIPK1,93%
same,remaining binding at 0.1 µM,CSK,100%
same,remaining binding at 0.1 µM,BRK,98%
same,remaining binding at 0.1 µM,EPHB2,88%
same,remaining binding at 0.1 µM,KIT(D816V),89%
